Measurements: paper doi:10.1101/2022.02.23.481635v1 (biorxiv, 2022)

Tests used:
Type in all cases: binding
14-3-3σ/TAZ complex [1] = biological target: T1, 14-3-3σ/TAZ complex (Homo sapiens, UniProt P31947+Q9GZV5); experiment: STD NMR; conditions: 300 μM fragment, 10 μM 14-3-3σ, 100 μM TAZ peptide, relative to apo-14-3-3σ
14-3-3σ/TAZ complex [2] = biological target: T1, 14-3-3σ/TAZ complex; experiment: STD NMR dose response
14-3-3/ABL1 complex = 14-3-3/ABL1 complex (Homo sapiens, UniProt P00519+P31947); experiment: STD NMR dose response
Sequence of 14-3-3/ABL1 complex (P31947 whole entry, other chains not shown): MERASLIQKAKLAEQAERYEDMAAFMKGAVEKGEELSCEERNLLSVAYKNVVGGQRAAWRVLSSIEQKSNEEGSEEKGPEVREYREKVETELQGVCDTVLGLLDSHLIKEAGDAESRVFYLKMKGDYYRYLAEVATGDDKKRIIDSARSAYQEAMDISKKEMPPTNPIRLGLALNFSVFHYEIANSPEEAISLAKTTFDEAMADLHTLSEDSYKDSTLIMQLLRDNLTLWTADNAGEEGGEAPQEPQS

T1 sequence (P31947 whole entry, other chains not shown, the tested form may be a part): as the sequence (P31947 whole entry, other chains not shown) above

Structure (SMILES)	fold STD signal (I+peptide / I-peptide) (14-3-3σ/TAZ complex [1])	EC50 (14-3-3σ/TAZ complex [2])	EC50 (14-3-3/ABL1 complex)
CCN1CCN(c2cc(C(=N)N)ccn2)CC1 [F4]	1.9 fold	–	–
COC(=O)c1cccc(C(=N)N)c1 [F5]	–	1800 ± 400 µM	8700 ± 400 µM
N=C(N)c1cc2ccccc2o1 [F9]	–	2300 ± 300 µM	–
